Article PMC9181852, “In Vivo and In Vitro Biological Evaluation and Molecular Docking Studies of Compounds Isolated from Micromeria biflora (Buch. Ham. ex D.Don) Benth” (Molecules, 2022)

Columns and labels:
Open field sedative test = type: in vivo, mice (Balb/c); settings: 30 min after administration
Protocol: (§1) Healthy mice (Balb/c) with weight ranging from 20 to 22 g and ages 9 to 10 weeks were used in this screening model. The grown animals were provided with standard laboratory conditions such as standard food and water ad libitum. The in vivo biological screening test was performed at the Department of Veterinary Medicine, College of Agriculture and Veterinary Medicine, Qassim University Buraydah, Saudi Arabia, as well as Swabi University, KP, Pakistan, according to published procedures.
The sedative potential of salicylalazine isolated from M. biflora was assessed as per the reported procedure. The animals were divided into different groups, as designated above. The apparatuses used in this screening contained an area of white wood with a 150 cm diameter bordered by stainless steel walls and was separated into 19 squares by black lines. Then, the open field apparatus was positioned inside the light and sound-reduced room. The different groups of animals were administered distilled water, diazepam, and salicylalazine at different doses. Thirty minutes after administration, all groups of animals were permitted to move from the center of the design box. […] Statistical calculations were performed by counting the number of lines crossed by every animal.

[1] = Carrageenan-induced paw edema; type: in vivo, mice
Protocol: as §1
This model was used to identify the anti-inflammatory potency of salicylalazine purified from M. biflora according to the standard method. The animals were randomly distributed into different groups depending on the treatment. Group I was treated with distilled water (10 mL/kg), which acted as a negative control. […] After 30 min of the intraperitoneal subjection of the mentioned administrations, 1% carrageen (0.05 mL) was […] administrated in the right paw of each animal. The inflammation in every animal was recoded after 1–5 h of carrageenan treatment using a plethysmometer (LE 7500 plan lab S.L). The anti-inflammatory action of salicylalazine was measured using the following formula: Activity %=A−B /A×100 where A is the paw edema of the control group, and B is the paw edema of the screening group.

[2] = Histamine-induced paw edema; type: in vivo, mice
Protocol: as §1
The anti-inflammatory potential of salicylalazine isolated from M. biflora was determined as per our recently published method. The induction of inflammation was completed by administering 0.1 mL histamine (0.5%) to the animal’s sub plantar region. The volume of the paw was recorded 1–5 h after the administration of the inflammatory drug. Then, every group of animals was divided and pretreated orally with salicylalazine (15 and 20 mg/kg) for 1 h before making paw edema. The effect of the drug was related to that of loratadine (standard).

NCI-H226 = test: Anticancer MTT assay, NCI-H226; type: cell-based; settings: Homo sapiens, 24 h
Protocol: The MTT assay was used to assess the cytotoxicity of salicylalazine isolated from M. biflora as per the previously documented method. For the MTT assay, Gibco BRL was combined with 100 µg/mL of penicillin sodium salts, 10% FBS (Gibco), and sodium carbonate (2 mg/mL). The prepared medium was used to keep three human cancer cell lines: human hepatoma (HepG2), human A498, and renal NCI-h226 non-small cell lung). Mouse hepatocytes, including HepG2 and HepG-R, were planted in 96-well plates. The cell lines were preserved with salicylalazine (1.5–100 μM), hatched for 24 h, and then they were tracked using the MTT procedure^14. This method was used for all tested cell lines. The IC50 value of salicylalazine in different cell lines was calculated from the concentration-effect curves. The standard drug used in this experiment was paclitaxel.

MDR2780AD = test: Anticancer MTT assay, MDR2780AD; type: cell-based; settings: 24 h
COX-2 = target: T1, COX-2 (Homo sapiens, UniProt P35354); test: In vitro COX-2 inhibition (screening kit); type: biochemical
T1 construct: purchased
T1 sequence (P35354 18-604): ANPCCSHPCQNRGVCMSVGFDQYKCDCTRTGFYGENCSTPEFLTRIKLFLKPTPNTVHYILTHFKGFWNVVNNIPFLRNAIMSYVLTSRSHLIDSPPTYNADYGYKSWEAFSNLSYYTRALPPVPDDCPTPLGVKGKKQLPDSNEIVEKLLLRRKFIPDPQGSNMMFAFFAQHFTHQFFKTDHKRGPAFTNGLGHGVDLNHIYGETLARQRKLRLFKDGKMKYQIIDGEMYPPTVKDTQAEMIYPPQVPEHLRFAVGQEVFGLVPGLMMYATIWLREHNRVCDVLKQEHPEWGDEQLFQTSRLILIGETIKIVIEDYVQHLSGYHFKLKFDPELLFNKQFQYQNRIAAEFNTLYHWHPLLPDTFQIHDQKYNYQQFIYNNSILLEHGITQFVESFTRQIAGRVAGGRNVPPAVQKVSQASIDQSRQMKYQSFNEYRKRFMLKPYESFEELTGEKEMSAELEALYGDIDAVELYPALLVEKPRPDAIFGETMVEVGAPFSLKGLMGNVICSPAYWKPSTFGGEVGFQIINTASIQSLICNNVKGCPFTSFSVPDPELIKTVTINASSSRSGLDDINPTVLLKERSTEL
Protocol: (§2) The in vitro inhibition of cyclooxygenases (COX-1 and COX-2) by the isolated compounds was determined using screening kits.

COX-1 = COX-1 (Homo sapiens, UniProt P23219); test: In vitro COX-1 inhibition (screening kit)
Chain of COX-1 (P23219 24-599): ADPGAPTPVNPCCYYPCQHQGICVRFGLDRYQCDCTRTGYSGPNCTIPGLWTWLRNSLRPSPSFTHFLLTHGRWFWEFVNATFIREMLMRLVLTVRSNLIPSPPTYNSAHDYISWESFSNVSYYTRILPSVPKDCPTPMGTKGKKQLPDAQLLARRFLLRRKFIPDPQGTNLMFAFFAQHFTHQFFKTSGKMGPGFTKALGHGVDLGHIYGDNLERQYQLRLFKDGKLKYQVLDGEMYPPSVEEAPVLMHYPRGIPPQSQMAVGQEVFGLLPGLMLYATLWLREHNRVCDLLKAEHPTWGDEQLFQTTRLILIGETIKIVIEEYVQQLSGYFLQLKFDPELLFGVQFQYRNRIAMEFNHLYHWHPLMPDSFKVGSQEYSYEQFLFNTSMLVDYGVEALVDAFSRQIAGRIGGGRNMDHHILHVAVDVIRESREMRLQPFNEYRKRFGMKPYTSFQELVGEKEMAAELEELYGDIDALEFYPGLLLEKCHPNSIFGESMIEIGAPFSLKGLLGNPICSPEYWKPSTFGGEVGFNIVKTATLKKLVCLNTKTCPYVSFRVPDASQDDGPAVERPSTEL
Protocol: as §2

IC50 (NCI-H226): 64.98 ± 0.11 µM
IC50 (MDR2780AD): 0.85 ± 0.09 µM
IC50 (COX-2): 9.08 ± 0.11 µM
SI (COX-2; SI = IC50 (COX-1)/IC50 (COX-2)): 4.85
melting point: 215 to 218 °C
IC50 (COX-1): 44.1 ± 1.18 µM
SMILES: Oc1ccccc1/C=N/N=C/c1ccccc1O [Salicylalazine, salicylalazine]
No of Lines Crossed (Open field sedative test; dose 2.5 mg/kg): 78.54 ± 0.98
No of Lines Crossed (Open field sedative test; dose 5 mg/kg): 69.98 ± 1.22
No of Lines Crossed (Open field sedative test; dose 10 mg/kg): 60.90 ± 1.00
No of Lines Crossed (Open field sedative test; dose 15 mg/kg): 51.09 ± 0.97
No of Lines Crossed (Open field sedative test; dose 20 mg/kg): 40.98 ± 0.80
Attenuation of carrageenan-induced paw edema (maximum) ([1]; 15 mg/kg, after 3 h): 80.98%
Inhibition of carrageenan-induced paw edema (maximum) ([1]; 20 mg/kg, 3 h after carrageenan): 90.22%
Inhibition of carrageenan-induced paw edema ([1]; 20 mg/kg, after 1 h): 45.11%
Effect on histamine-induced paw edema ([2]; 15 mg/kg, 1 h): 78.45%
Effect on histamine-induced paw edema ([2]; 15 mg/kg, 2 h): 74.33%
Effect on histamine-induced paw edema ([2]; 15 mg/kg, 3 h): 58.09%
Effect on histamine-induced paw edema ([2]; 20 mg/kg, 1 h): 90.55%
Effect on histamine-induced paw edema ([2]; 20 mg/kg, 2 h): 93.99%
Effect on histamine-induced paw edema ([2]; 20 mg/kg, 3 h): 86.11%
